Experimental data published in ChEMBL document CHEMBL5444388, “Affinity Phenotypic Cellular Literature for EUbOPEN Chemogenomic Library” (2024).

How the values were obtained:
Assay type in all cases: functional, cell-based
Parameters in all cases: recommended concentration 100 nM
[1] = target: Centromere-associated protein E (Homo sapiens) (UniProt Q02224); experiment: Affinity Phenotypic Cellular interaction: (Cell-growth inhibition assays (growth inhibitory effect colon cancer cell line A673)) EUB0000734a CENPE; conditions: Affinity Phenotypic Cellular Source Knowledge https://pubmed.ncbi.nlm.nih.gov/20167803/
[2] = target: Centromere-associated protein E (Homo sapiens) (UniProt Q02224); experiment: Affinity Phenotypic Cellular interaction: (Cell-growth inhibition assays (growth inhibitory effect colon cancer cell line C3A)) EUB0000734a CENPE; conditions: Affinity Phenotypic Cellular Source Knowledge https://pubmed.ncbi.nlm.nih.gov/20167803/
[3] = target: Centromere-associated protein E (Homo sapiens) (UniProt Q02224); experiment: Affinity Phenotypic Cellular interaction: (Cell-growth inhibition assays (growth inhibitory effect colon cancer cell line C-4I)) EUB0000734a CENPE; conditions: Affinity Phenotypic Cellular Source Knowledge https://pubmed.ncbi.nlm.nih.gov/20167803/
[4] = target: Centromere-associated protein E (Homo sapiens) (UniProt Q02224); experiment: Affinity Phenotypic Cellular interaction: (Cell-growth inhibition assays (growth inhibitory effect colon cancer cell line CAL-54)) EUB0000734a CENPE; conditions: Affinity Phenotypic Cellular Source Knowledge https://pubmed.ncbi.nlm.nih.gov/20167803/
[5] = target: Centromere-associated protein E (Homo sapiens) (UniProt Q02224); experiment: Affinity Phenotypic Cellular interaction: (Cell-growth inhibition assays (growth inhibitory effect colon cancer cell line CAL-62)) EUB0000734a CENPE; conditions: Affinity Phenotypic Cellular Source Knowledge https://pubmed.ncbi.nlm.nih.gov/20167803/
[6] = target: Centromere-associated protein E (Homo sapiens) (UniProt Q02224); experiment: Affinity Phenotypic Cellular interaction: (Cell-growth inhibition assays (growth inhibitory effect colon cancer cell line CESS)) EUB0000734a CENPE; conditions: Affinity Phenotypic Cellular Source Knowledge https://pubmed.ncbi.nlm.nih.gov/20167803/
[7] = target: Centromere-associated protein E (Homo sapiens) (UniProt Q02224); experiment: Affinity Phenotypic Cellular interaction: (Cell-growth inhibition assays (growth inhibitory effect colon cancer cell line COLO 201)) EUB0000734a CENPE; conditions: Affinity Phenotypic Cellular Source Knowledge https://pubmed.ncbi.nlm.nih.gov/20167803/
[8] = target: Centromere-associated protein E (Homo sapiens) (UniProt Q02224); experiment: Affinity Phenotypic Cellular interaction: (Cell-growth inhibition assays (growth inhibitory effect colon cancer cell line Detroit562)) EUB0000734a CENPE; conditions: Detroit 562, Affinity Phenotypic Cellular Source Knowledge https://pubmed.ncbi.nlm.nih.gov/20167803/
[9] = target: Centromere-associated protein E (Homo sapiens) (UniProt Q02224); experiment: Affinity Phenotypic Cellular interaction: (Cell-growth inhibition assays (growth inhibitory effect colon cancer cell line DoTc2-4510)) EUB0000734a CENPE; conditions: Affinity Phenotypic Cellular Source Knowledge https://pubmed.ncbi.nlm.nih.gov/20167803/
[10] = target: Centromere-associated protein E (Homo sapiens) (UniProt Q02224); experiment: Affinity Phenotypic Cellular interaction: (Cell-growth inhibition assays (growth inhibitory effect colon cancer cell line ES-2)) EUB0000734a CENPE; conditions: Affinity Phenotypic Cellular Source Knowledge https://pubmed.ncbi.nlm.nih.gov/20167803/
[11] = target: Centromere-associated protein E (Homo sapiens) (UniProt Q02224); experiment: Affinity Phenotypic Cellular interaction: (Cell-growth inhibition assays (growth inhibitory effect colon cancer cell line G-401)) EUB0000734a CENPE; conditions: Affinity Phenotypic Cellular Source Knowledge https://pubmed.ncbi.nlm.nih.gov/20167803/
[12] = target: Centromere-associated protein E (Homo sapiens) (UniProt Q02224); experiment: Affinity Phenotypic Cellular interaction: (Cell-growth inhibition assays (growth inhibitory effect colon cancer cell line G-402)) EUB0000734a CENPE; conditions: Affinity Phenotypic Cellular Source Knowledge https://pubmed.ncbi.nlm.nih.gov/20167803/
[13] = target: Centromere-associated protein E (Homo sapiens) (UniProt Q02224); experiment: Affinity Phenotypic Cellular interaction: (Cell-growth inhibition assays (growth inhibitory effect colon cancer cell line HCC1143)) EUB0000734a CENPE; conditions: Affinity Phenotypic Cellular Source Knowledge https://pubmed.ncbi.nlm.nih.gov/20167803/
[14] = target: Centromere-associated protein E (Homo sapiens) (UniProt Q02224); experiment: Affinity Phenotypic Cellular interaction: (Cell-growth inhibition assays (growth inhibitory effect colon cancer cell line HCC1954)) EUB0000734a CENPE; conditions: Affinity Phenotypic Cellular Source Knowledge https://pubmed.ncbi.nlm.nih.gov/20167803/
[15] = target: Centromere-associated protein E (Homo sapiens) (UniProt Q02224); experiment: Affinity Phenotypic Cellular interaction: (Cell-growth inhibition assays (growth inhibitory effect colon cancer cell line HEC-1-B)) EUB0000734a CENPE; conditions: Affinity Phenotypic Cellular Source Knowledge https://pubmed.ncbi.nlm.nih.gov/20167803/
[16] = target: Centromere-associated protein E (Homo sapiens) (UniProt Q02224); experiment: Affinity Phenotypic Cellular interaction: (Cell-growth inhibition assays (growth inhibitory effect colon cancer cell line HN5)) EUB0000734a CENPE; conditions: Affinity Phenotypic Cellular Source Knowledge https://pubmed.ncbi.nlm.nih.gov/20167803/
[17] = target: Centromere-associated protein E (Homo sapiens) (UniProt Q02224); experiment: Affinity Phenotypic Cellular interaction: (Cell-growth inhibition assays (growth inhibitory effect colon cancer cell line HOS)) EUB0000734a CENPE; conditions: Affinity Phenotypic Cellular Source Knowledge https://pubmed.ncbi.nlm.nih.gov/20167803/
[18] = target: Centromere-associated protein E (Homo sapiens) (UniProt Q02224); experiment: Affinity Phenotypic Cellular interaction: (Cell-growth inhibition assays (growth inhibitory effect colon cancer cell line HT-29)) EUB0000734a CENPE; conditions: Affinity Phenotypic Cellular Source Knowledge https://pubmed.ncbi.nlm.nih.gov/20167803/
[19] = target: Centromere-associated protein E (Homo sapiens) (UniProt Q02224); experiment: Affinity Phenotypic Cellular interaction: (Cell-growth inhibition assays (growth inhibitory effect colon cancer cell line MIA PaCa-2)) EUB0000734a CENPE; conditions: Affinity Phenotypic Cellular Source Knowledge https://pubmed.ncbi.nlm.nih.gov/20167803/
[20] = target: Centromere-associated protein E (Homo sapiens) (UniProt Q02224); experiment: Affinity Phenotypic Cellular interaction: (Cell-growth inhibition assays (growth inhibitory effect breast cancer cell line MT-3)) EUB0000734a CENPE; conditions: Affinity Phenotypic Cellular Source Knowledge https://pubmed.ncbi.nlm.nih.gov/20167803/
[21] = target: Centromere-associated protein E (Homo sapiens) (UniProt Q02224); experiment: Affinity Phenotypic Cellular interaction: (Cell-growth inhibition assays (growth inhibitory effect colon cancer cell line MV-4-11)) EUB0000734a CENPE; conditions: MV4-11, Affinity Phenotypic Cellular Source Knowledge https://pubmed.ncbi.nlm.nih.gov/20167803/
[22] = target: Centromere-associated protein E (Homo sapiens) (UniProt Q02224); experiment: Affinity Phenotypic Cellular interaction: (Cell-growth inhibition assays (growth inhibitory effect colon cancer cell line OV-90)) EUB0000734a CENPE; conditions: Affinity Phenotypic Cellular Source Knowledge https://pubmed.ncbi.nlm.nih.gov/20167803/
[23] = target: Centromere-associated protein E (Homo sapiens) (UniProt Q02224); experiment: Affinity Phenotypic Cellular interaction: (Cell-growth inhibition assays (growth inhibitory effect colon cancer cell line OVCAR-3)) EUB0000734a CENPE; conditions: Affinity Phenotypic Cellular Source Knowledge https://pubmed.ncbi.nlm.nih.gov/20167803/
[24] = target: Centromere-associated protein E (Homo sapiens) (UniProt Q02224); experiment: Affinity Phenotypic Cellular interaction: (Cell-growth inhibition assays (growth inhibitory effect colon cancer cell line OVCAR-5)) EUB0000734a CENPE; conditions: Affinity Phenotypic Cellular Source Knowledge https://pubmed.ncbi.nlm.nih.gov/20167803/
[25] = target: Centromere-associated protein E (Homo sapiens) (UniProt Q02224); experiment: Affinity Phenotypic Cellular interaction: (Cell-growth inhibition assays (growth inhibitory effect colon cancer cell line PC-3)) EUB0000734a CENPE; conditions: Affinity Phenotypic Cellular Source Knowledge https://pubmed.ncbi.nlm.nih.gov/20167803/
[26] = target: Centromere-associated protein E (Homo sapiens) (UniProt Q02224); experiment: Affinity Phenotypic Cellular interaction: (Cell-growth inhibition assays (growth inhibitory effect colon cancer cell line SCC-25)) EUB0000734a CENPE; conditions: Affinity Phenotypic Cellular Source Knowledge https://pubmed.ncbi.nlm.nih.gov/20167803/
[27] = target: Centromere-associated protein E (Homo sapiens) (UniProt Q02224); experiment: Affinity Phenotypic Cellular interaction: (Cell-growth inhibition assays (growth inhibitory effect colon cancer cell line SK-MEL-3)) EUB0000734a CENPE; conditions: SK-MEL3, Affinity Phenotypic Cellular Source Knowledge https://pubmed.ncbi.nlm.nih.gov/20167803/
[28] = target: Centromere-associated protein E (Homo sapiens) (UniProt Q02224); experiment: Affinity Phenotypic Cellular interaction: (Cell-growth inhibition assays (growth inhibitory effect colon cancer cell line SK-NEP-1)) EUB0000734a CENPE; conditions: Affinity Phenotypic Cellular Source Knowledge https://pubmed.ncbi.nlm.nih.gov/20167803/
[29] = target: Centromere-associated protein E (Homo sapiens) (UniProt Q02224); experiment: Affinity Phenotypic Cellular interaction: (Cell-growth inhibition assays (growth inhibitory effect colon cancer cell line SN12C)) EUB0000734a CENPE; conditions: Affinity Phenotypic Cellular Source Knowledge https://pubmed.ncbi.nlm.nih.gov/20167803/
[30] = target: Centromere-associated protein E (Homo sapiens) (UniProt Q02224); experiment: Affinity Phenotypic Cellular interaction: (Cell-growth inhibition assays (growth inhibitory effect colon cancer cell line SR)) EUB0000734a CENPE; conditions: Affinity Phenotypic Cellular Source Knowledge https://pubmed.ncbi.nlm.nih.gov/20167803/
[31] = target: Centromere-associated protein E (Homo sapiens) (UniProt Q02224); experiment: Affinity Phenotypic Cellular interaction: (Cell-growth inhibition assays (growth inhibitory effect colon cancer cell line SW1463)) EUB0000734a CENPE; conditions: Affinity Phenotypic Cellular Source Knowledge https://pubmed.ncbi.nlm.nih.gov/20167803/
[32] = target: Centromere-associated protein E (Homo sapiens) (UniProt Q02224); experiment: Affinity Phenotypic Cellular interaction: (Cell-growth inhibition assays (growth inhibitory effect colon cancer cell line SW480)) EUB0000734a CENPE; conditions: Affinity Phenotypic Cellular Source Knowledge https://pubmed.ncbi.nlm.nih.gov/20167803/
[33] = target: Centromere-associated protein E (Homo sapiens) (UniProt Q02224); experiment: Affinity Phenotypic Cellular interaction: (Cell-growth inhibition assays (growth inhibitory effect colon cancer cell line SW837)) EUB0000734a CENPE; conditions: Affinity Phenotypic Cellular Source Knowledge https://pubmed.ncbi.nlm.nih.gov/20167803/
[34] = target: Centromere-associated protein E (Homo sapiens) (UniProt Q02224); experiment: Affinity Phenotypic Cellular interaction: (Cell-growth inhibition assays (growth inhibitory effect colon cancer cell line SW-872)) EUB0000734a CENPE; conditions: SW872, Affinity Phenotypic Cellular Source Knowledge https://pubmed.ncbi.nlm.nih.gov/20167803/
[35] = target: Centromere-associated protein E (Homo sapiens) (UniProt Q02224); experiment: Affinity Phenotypic Cellular interaction: (Cell-growth inhibition assays (growth inhibitory effect colon cancer cell line SW-954)) EUB0000734a CENPE; conditions: Affinity Phenotypic Cellular Source Knowledge https://pubmed.ncbi.nlm.nih.gov/20167803/
[36] = target: Centromere-associated protein E (Homo sapiens) (UniProt Q02224); experiment: Affinity Phenotypic Cellular interaction: (Cell-growth inhibition assays (growth inhibitory effect colon cancer cell line T-47D)) EUB0000734a CENPE; conditions: T47D, Affinity Phenotypic Cellular Source Knowledge https://pubmed.ncbi.nlm.nih.gov/20167803/
[37] = target: Centromere-associated protein E (Homo sapiens) (UniProt Q02224); experiment: Affinity Phenotypic Cellular interaction: (Cell-growth inhibition assays (growth inhibitory effect colon cancer cell line TK-10)) EUB0000734a CENPE; conditions: Affinity Phenotypic Cellular Source Knowledge https://pubmed.ncbi.nlm.nih.gov/20167803/
[38] = target: Centromere-associated protein E (Homo sapiens) (UniProt Q02224); experiment: Affinity Phenotypic Cellular interaction: (Cell-growth inhibition assays (growth inhibitory effect colon cancer cell line WiDr)) EUB0000734a CENPE; conditions: Affinity Phenotypic Cellular Source Knowledge https://pubmed.ncbi.nlm.nih.gov/20167803/
[39] = target: Centromere-associated protein E (Homo sapiens) (UniProt Q02224); experiment: Affinity Phenotypic Cellular interaction: (Cell-growth inhibition assays (growth inhibitory effect colon cancer cell line YAPC)) EUB0000734a CENPE; conditions: Affinity Phenotypic Cellular Source Knowledge https://pubmed.ncbi.nlm.nih.gov/20167803/

Chain of Centromere-associated protein E (Homo sapiens) (Q02224 whole entry): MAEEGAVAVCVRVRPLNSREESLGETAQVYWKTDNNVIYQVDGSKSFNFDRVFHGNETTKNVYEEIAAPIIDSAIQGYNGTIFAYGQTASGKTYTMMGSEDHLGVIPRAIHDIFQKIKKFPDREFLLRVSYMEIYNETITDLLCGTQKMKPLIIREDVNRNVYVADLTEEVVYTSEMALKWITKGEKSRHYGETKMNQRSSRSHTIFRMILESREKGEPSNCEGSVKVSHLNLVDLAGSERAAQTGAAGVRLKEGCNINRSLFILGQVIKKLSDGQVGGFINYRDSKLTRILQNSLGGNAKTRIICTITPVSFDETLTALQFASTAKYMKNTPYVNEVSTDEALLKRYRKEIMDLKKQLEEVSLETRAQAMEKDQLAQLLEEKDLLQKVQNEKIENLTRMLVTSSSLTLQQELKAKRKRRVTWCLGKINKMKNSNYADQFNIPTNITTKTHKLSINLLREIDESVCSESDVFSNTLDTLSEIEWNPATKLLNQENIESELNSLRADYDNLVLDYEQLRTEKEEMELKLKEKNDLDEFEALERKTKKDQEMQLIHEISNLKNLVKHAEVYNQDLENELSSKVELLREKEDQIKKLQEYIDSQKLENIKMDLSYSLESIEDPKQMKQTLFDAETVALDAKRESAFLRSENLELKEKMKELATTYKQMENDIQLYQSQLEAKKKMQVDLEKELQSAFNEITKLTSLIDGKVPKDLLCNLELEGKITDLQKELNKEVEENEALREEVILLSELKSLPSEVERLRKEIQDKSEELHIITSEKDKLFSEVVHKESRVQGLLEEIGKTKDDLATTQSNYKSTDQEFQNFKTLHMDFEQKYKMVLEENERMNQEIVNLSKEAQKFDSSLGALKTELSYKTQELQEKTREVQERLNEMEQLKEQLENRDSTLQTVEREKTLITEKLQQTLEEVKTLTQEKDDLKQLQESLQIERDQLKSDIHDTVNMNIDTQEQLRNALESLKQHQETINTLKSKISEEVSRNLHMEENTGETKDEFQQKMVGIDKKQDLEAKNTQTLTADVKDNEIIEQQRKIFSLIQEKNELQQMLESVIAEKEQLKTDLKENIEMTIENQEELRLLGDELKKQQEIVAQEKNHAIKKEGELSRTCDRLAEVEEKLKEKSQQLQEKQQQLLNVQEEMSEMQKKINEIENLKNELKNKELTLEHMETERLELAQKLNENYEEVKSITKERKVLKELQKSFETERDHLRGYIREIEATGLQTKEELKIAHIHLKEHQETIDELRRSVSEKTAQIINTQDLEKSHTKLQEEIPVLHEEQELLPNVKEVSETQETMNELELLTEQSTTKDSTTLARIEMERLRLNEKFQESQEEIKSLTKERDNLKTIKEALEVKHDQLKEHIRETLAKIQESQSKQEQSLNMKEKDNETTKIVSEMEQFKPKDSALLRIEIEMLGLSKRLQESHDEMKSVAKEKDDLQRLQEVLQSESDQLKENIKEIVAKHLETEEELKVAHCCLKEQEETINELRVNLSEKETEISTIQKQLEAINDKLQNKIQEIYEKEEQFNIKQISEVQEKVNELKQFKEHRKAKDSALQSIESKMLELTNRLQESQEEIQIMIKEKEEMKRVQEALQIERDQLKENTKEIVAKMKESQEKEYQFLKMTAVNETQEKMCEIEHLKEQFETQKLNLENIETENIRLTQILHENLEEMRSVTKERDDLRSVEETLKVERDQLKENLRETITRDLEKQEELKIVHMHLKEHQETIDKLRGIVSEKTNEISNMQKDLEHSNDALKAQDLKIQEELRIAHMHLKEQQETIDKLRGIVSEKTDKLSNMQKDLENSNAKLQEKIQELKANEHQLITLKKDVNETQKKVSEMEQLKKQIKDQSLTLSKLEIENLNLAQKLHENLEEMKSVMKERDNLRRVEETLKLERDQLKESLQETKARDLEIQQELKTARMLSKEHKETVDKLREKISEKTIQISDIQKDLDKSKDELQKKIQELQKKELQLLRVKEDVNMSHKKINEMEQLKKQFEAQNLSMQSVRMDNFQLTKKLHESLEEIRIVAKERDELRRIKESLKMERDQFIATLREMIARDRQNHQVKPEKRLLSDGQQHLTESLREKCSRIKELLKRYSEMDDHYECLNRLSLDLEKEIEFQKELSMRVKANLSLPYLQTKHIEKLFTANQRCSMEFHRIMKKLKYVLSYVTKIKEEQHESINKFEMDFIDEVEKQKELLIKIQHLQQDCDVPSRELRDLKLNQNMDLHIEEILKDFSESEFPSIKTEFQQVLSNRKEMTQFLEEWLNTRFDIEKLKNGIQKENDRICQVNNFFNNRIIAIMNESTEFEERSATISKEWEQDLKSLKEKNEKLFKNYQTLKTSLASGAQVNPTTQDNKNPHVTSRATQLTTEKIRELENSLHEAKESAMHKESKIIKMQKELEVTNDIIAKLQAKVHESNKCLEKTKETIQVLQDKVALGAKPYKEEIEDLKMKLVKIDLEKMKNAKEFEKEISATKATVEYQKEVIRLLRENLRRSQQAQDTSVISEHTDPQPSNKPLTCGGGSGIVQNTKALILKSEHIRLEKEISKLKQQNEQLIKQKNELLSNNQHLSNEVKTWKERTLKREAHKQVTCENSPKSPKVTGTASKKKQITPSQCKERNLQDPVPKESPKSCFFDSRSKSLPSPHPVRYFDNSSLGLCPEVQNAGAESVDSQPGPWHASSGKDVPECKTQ

GIC50 [1]: 23 nM | GIC50 [2]: 54 nM | GIC50 [3]: 42 nM | GIC50 [4]: 49 nM | GIC50 [5]: 30 nM | GIC50 [6]: 19 nM | GIC50 [7]: 24 nM | GIC50 [8]: 35 nM | GIC50 [9]: 33 nM | GIC50 [10]: 30 nM | GIC50 [11]: 26 nM | GIC50 [12]: 31 nM | GIC50 [13]: 27 nM | GIC50 [14]: 18 nM | GIC50 [15]: 28 nM | GIC50 [16]: 118 nM | GIC50 [17]: 27 nM | GIC50 [18]: 14 nM | GIC50 [19]: 23 nM | GIC50 [20]: 41 nM | GIC50 [21]: 29 nM | GIC50 [22]: 61 nM | GIC50 [23]: 42 nM | GIC50 [24]: 34 nM | GIC50 [25]: 28 nM | GIC50 [26]: 23 nM | GIC50 [27]: 30 nM | GIC50 [28]: 55 nM | GIC50 [29]: 29 nM | GIC50 [30]: 29 nM | GIC50 [31]: 31 nM | GIC50 [32]: 33 nM | GIC50 [33]: 33 nM | GIC50 [34]: 37 nM | GIC50 [35]: 22 nM | GIC50 [36]: 29 nM | GIC50 [37]: 49 nM | GIC50 [38]: 18 nM | GIC50 [39]: 59 nM
Structure (SMILES): CC(C)Oc1ccc(C(=O)N[C@H](CNC(=O)CN(C)C)Cc2ccc(-c3cn4cccc([C@H](C)O)c4n3)cc2)cc1Cl
